Measured values as given in ChEMBL document CHEMBL5113517, “Structure-Based Design, Optimization, and Evaluation of Potent Stabilized Peptide Inhibitors Disrupting MTDH and SND1 Interaction” (J Med Chem, 2022).
Numbered stars: 1 amine (or outer) side, 2 acyl side, 3 side chain; on linkers, the order of the positions; unused ones are H or OH. Bridge positions count the residues as written; N and C are the ends. Square brackets hold non-standard residues; d marks the D form. Peptide text beside a SMILES is read from it. I, II: the chains in the order shown. ξ: configuration not given here. X1 = N[C@@H](CC(=O)[*:1])C(=O)[*:2]; Dap = NC[C@H](N)C(=O)O; ξD = NC(CC(=O)O)C(=O)O

Test: Binding affinity to MTDH /His-SND1 (unknown origin) expressed in Escherichia coli BL21(DE3) assessed as dissociation constant by fluorescence polarization assay
Set-up: species or system Homo sapiens
Details: not given; call rule not given here

| Compound | Kd |
| --- | --- |
| CC(C)[C@H](NC(=O)[C@H](Cc1c[nH]c2ccccc12)NC(=O)[C@H](CC(N)=O)NC(=O)CNC(=O)[C@H](Cc1c[nH]c2ccccc12)NC(=O)[C@H](CCC(=O)O)NC(=O)[C@H](CCC(=O)O)NC(=O)[C@H](C)NC(=O)[C@@H]1CCCN1C(=O)[C@@H]1CNC(=O)[C@@H](NC(=O)[C@@H](N)CC(=O)O)CC(=O)N[C@@H](Cc2c[nH]c3ccccc23)C(=O)N[C@@H](CC(N)=O)C(=O)N1)C(=O)N[C@@H](CC(=O)O)C(=O)N[C@@H](CCC(=O)O)C(N)=O | 121 nM |
| C[C@@H]1NC(=O)C[C@H](N)C(=O)NC[C@@H](C(=O)N[C@@H](CC(=O)O)C(=O)N[C@@H](Cc2c[nH]c3ccccc23)C(=O)N[C@@H](CC(N)=O)C(=O)N[C@@H](C)C(=O)N2CCC[C@H]2C(=O)N[C@@H](C)C(=O)N[C@@H](CCC(=O)O)C(=O)N[C@@H](CCC(=O)O)C(=O)N[C@@H](Cc2c[nH]c3ccccc23)C(=O)NCC(=O)N[C@@H](CC(N)=O)C(N)=O)NC(=O)[C@H](C)NC1=O (AA[Dap]DWNAPAEEWGN-NH2; linker N-3 via X1) | 231 nM |
| CC[C@H](C)[C@H](NC(=O)[C@H](CC(N)=O)NC(=O)[C@H](Cc1c[nH]c2ccccc12)NC(=O)[C@H](CC(=O)O)NC(=O)[C@@H]1CNC(=O)[C@@H](N)CC(=O)N[C@@H](C)C(=O)N[C@@H](C)C(=O)N1)C(=O)N[C@@H](Cc1ccc(O)cc1)C(=O)N[C@@H](C)C(=O)N[C@@H](Cc1ccc(O)cc1)C(=O)N[C@@H](CCC(=O)O)C(=O)N[C@@H](Cc1c[nH]c2ccccc12)C(=O)NCC(=O)N[C@@H](CC(N)=O)C(=O)N[C@@H](CC(=O)O)C(N)=O (AA[Dap]DWNIYAYEWGND-NH2; linker N-3 via X1) | 443 nM |
| CC[C@H](C)[C@H](NC(=O)[C@H](CC(N)=O)NC(=O)[C@H](Cc1c[nH]c2ccccc12)NC(=O)[C@H](CC(=O)O)NC(=O)[C@@H]1CNC(=O)[C@@H](N)CC(=O)N[C@@H](C)C(=O)N[C@@H](C)C(=O)N1)C(=O)N[C@@H](Cc1ccc(O)cc1)C(=O)N[C@@H](C)C(=O)N[C@@H](Cc1ccc(O)cc1)C(=O)N[C@@H](CCC(=O)O)C(=O)N[C@@H](Cc1c[nH]c2ccccc12)C(=O)NCC(=O)N[C@@H](CC(N)=O)C(=O)N[C@@H](CCC(=O)O)C(N)=O (AA[Dap]DWNIYAYEWGNE-NH2; linker N-3 via X1) | 451 nM |
| CC[C@H](C)[C@H](NC(=O)[C@H](CC(N)=O)NC(=O)[C@H](Cc1c[nH]c2ccccc12)NC(=O)[C@H](CC(=O)O)NC(=O)[C@@H]1CNC(=O)[C@@H](N)CC(=O)N[C@@H](C)C(=O)N[C@@H](C)C(=O)N1)C(=O)N[C@@H](Cc1ccc(O)cc1)C(=O)N[C@@H](C)C(=O)N[C@@H](Cc1ccc(O)cc1)C(=O)N[C@@H](CCC(=O)O)C(=O)N[C@@H](Cc1c[nH]c2ccccc12)C(=O)NCC(=O)N[C@@H](CC(N)=O)C(=O)N[C@@H](Cc1c[nH]cn1)C(N)=O (AA[Dap]DWNIYAYEWGNH-NH2; linker N-3 via X1) | 671 nM |
| C[C@H](NC(=O)[C@@H]1CCCN1C(=O)[C@H](C)NC(=O)[C@H](CC(N)=O)NC(=O)[C@H](Cc1c[nH]c2ccccc12)NC(=O)[C@@H](N)CC(=O)O)C(=O)N[C@@H](CCC(=O)O)C(=O)N[C@@H](CCC(=O)O)C(=O)N[C@@H](Cc1c[nH]c2ccccc12)C(=O)NCC(=O)N[C@@H](CC(N)=O)C(=O)O (H-DWNAPAEEWGN-OH) | 211 nM |
| CC(C)[C@H](NC(=O)[C@H](Cc1c[nH]c2ccccc12)NC(=O)[C@H](CC(N)=O)NC(=O)CNC(=O)[C@H](Cc1c[nH]c2ccccc12)NC(=O)[C@H](CCC(=O)O)NC(=O)[C@@H]1CNC(=O)CC(NC(=O)[C@H](CC(N)=O)NC(=O)[C@H](Cc2c[nH]c3ccccc23)NC(=O)[C@@H](N)CC(=O)O)C(=O)N2CCC[C@H]2C(=O)N[C@@H](C)C(=O)N1)C(=O)N[C@@H](CC(=O)O)C(=O)N[C@@H](CCC(=O)O)C(N)=O (stereo partly specified) (H-DWN[ξD]PA[Dap]EWGNWVDE-NH2; lactam 4-7) | 171 nM |
| CC(C)[C@H](NC(=O)[C@H](Cc1c[nH]c2ccccc12)NC(=O)[C@H](CC(N)=O)NC(=O)CNC(=O)[C@H](Cc1c[nH]c2ccccc12)NC(=O)[C@H](CCC(=O)O)NC(=O)[C@H](CCC(=O)O)NC(=O)[C@H](C)NC(=O)[C@@H]1CCCN1C(=O)[C@H](C)NC(=O)[C@H](CC(N)=O)NC(=O)[C@H](Cc1c[nH]c2ccccc12)NC(=O)[C@H](CC(=O)O)NC(=O)[C@H](CO)NC(=O)[C@@H](N)CC(N)=O)C(=O)O (H-NSDWNAPAEEWGNWV-OH) | 152 nM |
| C[C@H](NC(=O)[C@H](CO)NC(=O)[C@@H](N)CO)C(=O)N[C@@H](CC(=O)O)C(=O)N1CCC[C@H]1C(=O)N[C@@H](CC(N)=O)C(=O)N[C@@H](CO)C(=O)N[C@@H](CC(=O)O)C(=O)N[C@@H](Cc1c[nH]c2ccccc12)C(=O)N[C@@H](CC(N)=O)C(=O)N[C@@H](C)C(=O)N1CCC[C@H]1C(=O)N[C@@H](C)C(=O)N[C@@H](CCC(=O)O)C(=O)N[C@@H](CCC(=O)O)C(=O)N[C@@H](Cc1c[nH]c2ccccc12)C(=O)NCC(=O)N[C@@H](CC(N)=O)C(=O)O (H-SSADPNSDWNAPAEEWGN-OH) | 118 nM |
| CC(C)[C@H](NC(=O)[C@H](Cc1c[nH]c2ccccc12)NC(=O)[C@H](CC(N)=O)NC(=O)CNC(=O)[C@H](Cc1c[nH]c2ccccc12)NC(=O)[C@H](CCC(=O)O)NC(=O)[C@H](CCC(=O)O)NC(=O)[C@H](C)NC(=O)[C@@H]1CCCN1C(=O)[C@H](C)NC(=O)[C@H](CC(N)=O)NC(=O)[C@H](Cc1c[nH]c2ccccc12)NC(=O)[C@H](CC(=O)O)NC(=O)[C@H](CO)NC(=O)[C@H](CC(N)=O)NC(=O)[C@@H]1CCCN1C(=O)[C@H](CC(=O)O)NC(=O)[C@H](C)NC(=O)[C@H](CO)NC(=O)[C@@H](N)CO)C(=O)N[C@@H](CC(=O)O)C(=O)N[C@@H](CCC(=O)O)C(=O)O (H-SSADPNSDWNAPAEEWGNWVDE-OH) | 62.4 nM |
| CC(C)[C@H](NC(=O)[C@H](Cc1c[nH]c2ccccc12)NC(=O)[C@H](CC(N)=O)NC(=O)CNC(=O)[C@H](Cc1c[nH]c2ccccc12)NC(=O)[C@@H]1CNC(=O)[C@@H](NC(=O)[C@H](C)NC(=O)[C@H](CC(N)=O)NC(=O)[C@H](Cc2c[nH]c3ccccc23)NC(=O)[C@@H](N)CC(=O)O)CC(=O)N[C@@H](C)C(=O)N[C@@H](CCC(=O)O)C(=O)N1)C(=O)N[C@@H](CC(=O)O)C(=O)N[C@@H](CCC(=O)O)C(N)=O (I: AE[Dap]WGNWVDE-NH2 / II: H-DWNAD; amide I:3-II:C, I:N-II:5) | 171 nM |
| C[C@H](NC(=O)[C@H](CC(N)=O)NC(=O)[C@@H]1CNC(=O)[C@@H](N)CC(=O)N[C@@H](Cc2c[nH]c3ccccc23)C(=O)N[C@@H](CC(N)=O)C(=O)N1)C(=O)N[C@@H](CCC(=O)O)C(=O)N[C@@H](CCC(=O)O)C(=O)N[C@@H](Cc1c[nH]c2ccccc12)C(=O)NCC(=O)N[C@@H](CC(N)=O)C(N)=O (WN[Dap]NAEEWGN-NH2; linker N-3 via X1) | 697 nM |
| C[C@H](NC(=O)[C@H](CC(N)=O)NC(=O)[C@@H]1CNC(=O)[C@@H](N)CC(=O)N[C@@H](Cc2c[nH]c3ccccc23)C(=O)N[C@@H](CC(N)=O)C(=O)N1)C(=O)N[C@@H](Cc1ccccc1)C(=O)N[C@@H](CCC(=O)O)C(=O)N[C@@H](Cc1c[nH]c2ccccc12)C(=O)NCC(=O)N[C@@H](CC(N)=O)C(N)=O (WN[Dap]NAFEWGN-NH2; linker N-3 via X1) | 1720 nM |
| C[C@H](NC(=O)[C@H](CC(N)=O)NC(=O)[C@@H]1CNC(=O)[C@@H](N)CC(=O)N[C@@H](Cc2c[nH]c3ccccc23)C(=O)N[C@@H](CC(N)=O)C(=O)N1)C(=O)N[C@@H](Cc1ccc(O)cc1)C(=O)N[C@@H](CCC(=O)O)C(=O)N[C@@H](Cc1c[nH]c2ccccc12)C(=O)NCC(=O)N[C@@H](CC(N)=O)C(N)=O (WN[Dap]NAYEWGN-NH2; linker N-3 via X1) | 932 nM |
| C[C@H](NC(=O)[C@@H]1CCCN1C(=O)[C@@H]1CNC(=O)[C@@H](N)CC(=O)N[C@@H](Cc2c[nH]c3ccccc23)C(=O)N[C@@H](CC(N)=O)C(=O)N1)C(=O)N[C@@H](CCC(=O)O)C(=O)N[C@@H](CCC(=O)O)C(=O)N[C@@H](Cc1c[nH]c2ccccc12)C(=O)NCC(=O)N[C@@H](CC(N)=O)C(N)=O (WN[Dap]PAEEWGN-NH2; linker N-3 via X1) | 584 nM |
| C[C@H](NC(=O)[C@@H]1CCCN1C(=O)[C@@H]1CNC(=O)[C@@H](N)CC(=O)N[C@@H](Cc2c[nH]c3ccccc23)C(=O)N[C@@H](CC(N)=O)C(=O)N1)C(=O)N[C@@H](Cc1ccccc1)C(=O)N[C@@H](CCC(=O)O)C(=O)N[C@@H](Cc1c[nH]c2ccccc12)C(=O)NCC(=O)N[C@@H](CC(N)=O)C(N)=O (WN[Dap]PAFEWGN-NH2; linker N-3 via X1) | 992 nM |
| C[C@H](NC(=O)[C@@H]1CCCN1C(=O)[C@@H]1CNC(=O)[C@@H](N)CC(=O)N[C@@H](Cc2c[nH]c3ccccc23)C(=O)N[C@@H](CC(N)=O)C(=O)N1)C(=O)N[C@@H](Cc1ccc(O)cc1)C(=O)N[C@@H](CCC(=O)O)C(=O)N[C@@H](Cc1c[nH]c2ccccc12)C(=O)NCC(=O)N[C@@H](CC(N)=O)C(N)=O (WN[Dap]PAYEWGN-NH2; linker N-3 via X1) | 585 nM |
| C[C@H](NC(=O)[C@H](Cc1ccc(O)cc1)NC(=O)[C@@H]1CNC(=O)[C@@H](N)CC(=O)N[C@@H](Cc2c[nH]c3ccccc23)C(=O)N[C@@H](CC(N)=O)C(=O)N1)C(=O)N[C@@H](Cc1ccc(O)cc1)C(=O)N[C@@H](CCC(=O)O)C(=O)N[C@@H](Cc1c[nH]c2ccccc12)C(=O)NCC(=O)N[C@@H](CC(N)=O)C(N)=O (WN[Dap]YAYEWGN-NH2; linker N-3 via X1) | 943 nM |

Test: Drug uptake in human MDA-MB-231 cells assessed as increase in cell penetration at 10 uM incubated for 12 hrs by flow cytometry method
Format: ADME, cell-based
Details: mda-mb-231, 12 h

| Compound | Drug uptake |
| --- | --- |
| CC(C)[C@H](NC(=O)[C@H](Cc1c[nH]c2ccccc12)NC(=O)[C@H](CC(N)=O)NC(=O)CNC(=O)[C@H](Cc1c[nH]c2ccccc12)NC(=O)[C@H](CCC(=O)O)NC(=O)[C@H](CCC(=O)O)NC(=O)[C@H](C)NC(=O)[C@@H]1CCCN1C(=O)[C@@H]1CNC(=O)[C@@H](NC(=O)[C@@H](N)CC(=O)O)CC(=O)N[C@@H](Cc2c[nH]c3ccccc23)C(=O)N[C@@H](CC(N)=O)C(=O)N1)C(=O)N[C@@H](CC(=O)O)C(=O)N[C@@H](CCC(=O)O)C(N)=O | Active |
| CC(C)[C@H](NC(=O)[C@H](Cc1c[nH]c2ccccc12)NC(=O)[C@H](CC(N)=O)NC(=O)CNC(=O)[C@H](Cc1c[nH]c2ccccc12)NC(=O)[C@H](CCC(=O)O)NC(=O)[C@@H]1CNC(=O)CC(NC(=O)[C@H](CC(N)=O)NC(=O)[C@H](Cc2c[nH]c3ccccc23)NC(=O)[C@@H](N)CC(=O)O)C(=O)N2CCC[C@H]2C(=O)N[C@@H](C)C(=O)N1)C(=O)N[C@@H](CC(=O)O)C(=O)N[C@@H](CCC(=O)O)C(N)=O (stereo partly specified) (H-DWN[ξD]PA[Dap]EWGNWVDE-NH2; lactam 4-7) | Active |
| CC(C)[C@H](NC(=O)[C@H](Cc1c[nH]c2ccccc12)NC(=O)[C@H](CC(N)=O)NC(=O)CNC(=O)[C@H](Cc1c[nH]c2ccccc12)NC(=O)[C@@H]1CNC(=O)[C@@H](NC(=O)[C@H](C)NC(=O)[C@H](CC(N)=O)NC(=O)[C@H](Cc2c[nH]c3ccccc23)NC(=O)[C@@H](N)CC(=O)O)CC(=O)N[C@@H](C)C(=O)N[C@@H](CCC(=O)O)C(=O)N1)C(=O)N[C@@H](CC(=O)O)C(=O)N[C@@H](CCC(=O)O)C(N)=O (I: AE[Dap]WGNWVDE-NH2 / II: H-DWNAD; amide I:3-II:C, I:N-II:5) | Active |
